This is an account of results in PMC6829466 (International Journal of Molecular Sciences, 2019).

The test system of data set [1] is HIV-1. In words: microbe, parasite or virus in culture. As to conditions: for TI (selectivity index): HIV-infected CEM-T4 cell line. As for the experimental part:
(§1) Evaluation of anti-HIV activity consisted of measurements of p24 antigen using the Genscreen ULTRA HIV Ag-Ab Kit. […] We included betulin and betulinic acid in our studies in order to broaden the structure-activity study. BVM, the first HIV-1 maturation inhibitor, was applied as a reference compound.
CEM-T4 cells were preincubated (culture plates with 96 flat bottom wells) for 24 h under standard conditions (37 °C, 5% CO2) and in a standard medium (RPMI, FCS 10%) enriched with tested compounds in the concentration range from 0.02 µM to 10 µM. In each well, 20,000 cells were suspended in the solution of a tested compound (200 μL). For each concentration, cultures were run in triplicate. A wild-type HIV-1 was isolated from the HIV-positive patient in the Laboratory of Virology of the National Medicines Institute (Warsaw, Poland) and was used as a reference. A culture of CEM-T4 lines in a standard neat medium (RPMU, FCS 10%) was used to produce viruses. After 24 h of incubation in a medium enriched with a tested compound, cells were inoculated with a known amount of HIV, and after 7 days, HIV replication was evaluated through the measurement of secreted viral protein p24 carried out with the enzyme-linked immunosorbent assay (ELISA) technique. For each tested compound and for each concentration, the measurements of p24 antigen were done in triplicate using the Genscreen ULTRA HIV Ag-Ab Kit (Biorad, Warszawa, Poland) and following manufacturer’s instructions. The absorbance of the sample was determined as an OD measured at 650 nm. HIV replication capacity was calculated using the Equation (2):Virus replication (%) = (OD of drug-enriched samples/OD of control samples) × 100(2)
The results were presented by a graph showing the ratio of HIV replication to the concentration of the tested preparation.

Data set [2] in a line: Cytotoxicity, MTT assay in CEM-T4 cells. Particulars: human. As to the method:
as §1
For the determination of compounds cytotoxicity, CEM-T4 cells were obtained from the NIH AIDS Reagent Program (NIH, US) and were cultured in RPMI supplemented with 10% FCS (Biochrom) and antibiotics at 37 °C in 5% CO2 on 96-well culture plates. […] Cultures in a neat medium (RPMI, 10% FCS) were used as a control. Viability of cells was determined after 7 days using the MTT assay in which 10 μL of MTT solution (5 mg/mL) was added to each culture plate well, and cultures were incubated for 3 h at a temperature of 37 °C. After the centrifugation, the supernatant was removed, and DMSO was added for lysis of the cells and to dissolve crystals of formazan. Color intensity was measured with a plate reader at 560 nm. Cell viability was determined by the Equation (1):Viability (%) = (OD of samples enriched in test drugs/OD of control samples) × 100(1) where OD means optical density.
Based on the calculations, a graph was created regarding the relationship between the concentration of the compound and the viability from which CC50 was established.

For the next data set, the system named is HIV. Particulars: cited from earlier work.
In data set [3] the test system is HIV-1. Also on record: method as in PMID 8176401. Particulars: inhibiting HIV-1 replication; cited from earlier work.
The mark [4] stands for this setting: Human immunodeficiency virus 1, CEM-T4, 168 h, wild-type HIV-1 in CEM-T4 cells, p24 antigen, 7 days, 50% inhibition of replication.
[5] abbreviates: wild-type HIV-1 in CEM-T4 cells, p24 antigen, 7 days, 50% inhibition of replication.

Like-named read-outs stand apart in the source and are kept apart here.

One may read the IC50 as the point on the concentration scale where inhibition reaches its midpoint. By CC50 is commonly meant the concentration at which the toxic effect on the cells reaches its halfway point. Lower therefore signals harm at low concentration. `C=C(COP(=O)(OCC)OCC)C1CCC2(C(=O)O)CCC3(C)C(CCC4C5(C)CCC(OC(=O)CCC(C)(C)C(=O)O)C(C)(C)C5CCC43C)C12` (stereo not shown) [Compound 12c]: in the data set with HIV-1 [1], the “TI (selectivity index)” value is listed as 16. In the data set with HIV-1 [1] (setting [4]), this compound showed an IC50 of 4 ± 1.65 µM. Moreover, in data set [2], the CC50 at 7 days was 64 ± 1.84 µM.
As a reminder, the EC50 is the concentration that produces a half-maximal response. As to `C=C(C)C1CCC2(C(=O)O)CCC3(C)C(CCC4C5(C)CCC(OC(=O)CC(C)(C)CC(=O)O)C(C)(C)C5CCC43C)C12` (stereo not shown) [3′,3′-dimethylglutarylbetulinic acid], the EC50 in the data set with HIV (literature reports) was 0.0023 µM.
`CCOP(=O)(C=C(C)C1CCC2(C(=O)O)CCC3(C)C(CCC4C5(C)CCC(O)C(C)(C)C5CCC43C)C12)OCC` (stereo not shown) [Compound 10, 29-Diethoxyphosphorylbetulinic acid]: the “TI (selectivity index)” value in the data set on HIV-1 [1] is reported as less than 8. In the data set with HIV-1 [1] (setting [4]), the IC50 was greater than 10 µM. The CC50 at 7 days in data set [2] was 80 ± 1.3 µM.
`C=C(C)[C@@H]1CC[C@]2(CO)CC[C@]3(C)[C@H](CC[C@@H]4[C@@]5(C)CC[C@H](O)C(C)(C)[C@@H]5CC[C@]43C)[C@@H]12` [betulin, lup-20(29)-ene-3β,28-diol, reference compound]: the IC50 with HIV-1 [1] (setting [4]) is greater than 10 µM. In addition, it took 46 ± 3.01 µM to reach half-maximal cytotoxicity in data set [2] (CC50 at 7 days).
In the case of `C=C(CP(=O)(OCC)OCC)C1CCC2(C(=O)O)CCC3(C)C(CCC4C5(C)CCC(OC(=O)CCC(C)(C)C(=O)O)C(C)(C)C5CCC43C)C12` (stereo not shown) [Compound 14c], the “TI (selectivity index)” value in the data set with HIV-1 [1] is greater than 68. In addition, in the data set on HIV-1 [1] (setting [4]), the IC50 was determined as 1 ± 0.17 µM. Further, the CC50 at 7 days in data set [2] is greater than 68 µM.
Consider `C=C(COP(=O)(OCC)OCC)C1CCC2(C(=O)O)CCC3(C)C(CCC4C5(C)CCC(O)C(C)(C)C5CCC43C)C12` (stereo not shown) [Compound 9], for which, in the data set on HIV-1 [1] (setting [4]), the IC50 is greater than 10 µM. The compound also gave a CC50 at 7 days in data set [2] of 18 ± 1.79 µM.
For `C=C(CP(=O)(OCC)OCC)C1CCC2(C(=O)O)CCC3(C)C(CCC4C5(C)CCC(OC(=O)CC(C)(C)CC(=O)O)C(C)(C)C5CCC43C)C12` (stereo not shown) [Compound 14b], in the data set on HIV-1 [1], the “TI (selectivity index)” value is on record as greater than 75. Further, inhibition in the data set on HIV-1 [1] (setting [4]) was half-maximal at 0.9 ± 0.12 µM (IC50). The compound also had a CC50 at 7 days in data set [2] greater than 68 µM.
In turn, `CCOP(=O)(C=C(C)C1CCC2(C(=O)O)CCC3(C)C(CCC4C5(C)CCC(OC(=O)CCC(C)(C)C(=O)O)C(C)(C)C5CCC43C)C12)OCC` (stereo not shown) [Compound 13c] showed an IC50 with HIV-1 [1] (setting [4]) greater than 10 µM. The compound further showed a CC50 at 7 days in data set [2] greater than 68 µM.
Consider `C=C(C)[C@@H]1CC[C@]2(C(=O)O)CC[C@]3(C)[C@H](CC[C@@H]4[C@@]5(C)CC[C@H](O)C(C)(C)[C@@H]5CC[C@]43C)[C@@H]12` [betulinic acid, 3β-hydroxy-20(29)-lupaene-28-oic acid, reference compound], for which the EC50 in the data set on HIV-1 [3] was 1.6 µM. This compound also came in with an IC50 with HIV-1 [1] (setting [4]) greater than 10 µM. Half-maximal cytotoxicity in data set [2] (CC50 at 7 days) was put at 5 ± 2.44 µM.
For the compound `C=C(COP(=O)(OCC)OCC)C1CCC2(C(=O)O)CCC3(C)C(CCC4C5(C)CCC(OC(=O)CC(C)(C)C(=O)O)C(C)(C)C5CCC43C)C12` (stereo not shown) [Compound 12a], in the data set on HIV-1 [1], the “TI (selectivity index)” value amounted to 52. For the same compound, the IC50 is less than 2 µM in the data set with HIV-1 [1] (setting [4]) and 1 ± 0.33 µM in the data set with HIV-1 [1] (setting [5]). The CC50 at 7 days in data set [2] was 52 ± 1.07 µM.
`C=C(C)[C@@H]1CC[C@]2(C(=O)O)CC[C@]3(C)[C@H](CC[C@@H]4[C@@]5(C)CC[C@H](OC(=O)CC(C)(C)C(=O)O)C(C)(C)[C@@H]5CC[C@]43C)[C@@H]12` [bevirimat, 3-O-(3′,3′-dimethylsuccinyl) betulinic acid, reference compound]: 0.03 ± 0.009 µM corresponded to half-maximal inhibition in the data set on HIV-1 [1] (Human immunodeficiency virus 1, CEM-T4, 168 h) (IC50). In data set [2] (CEM-T4 cells), this compound had a CC50 at 7 days of 29 ± 2.43 µM. Further, the EC50 in the data set with HIV (literature reports) was 0.00035 µM.
Regarding 3,28-di(dimethylglutaryl)betulin, the concentration giving a half-maximal response (EC50) in the data set with HIV is 0.00066 µM.
Turning to `CCOP(=O)(C=C(C)C1CCC2(C(=O)O)CCC3(C)C(CCC4C5(C)CCC(OC(=O)CC(C)(C)CC(=O)O)C(C)(C)C5CCC43C)C12)OCC` (stereo not shown) [Compound 13b], the “TI (selectivity index)” value in the data set with HIV-1 [1] is recorded as greater than 8. Also, the IC50 with HIV-1 [1] (setting [4]) turned out to be 8.8 ± 1.7 µM. In data set [2], this compound yielded a CC50 at 7 days greater than 68 µM.
The corresponding values for `C=C(COP(=O)(OCC)OCC)C1CCC2(C(=O)O)CCC3(C)C(CCC4C5(C)CCC(OC(=O)CC(C)(C)CC(=O)O)C(C)(C)C5CCC43C)C12` (stereo not shown) [Compound 12b] are 47, 0.6 ± 0.04 µM and 28 ± 1.64 µM.
As for `CCOP(=O)(C=C(C)C1CCC2(C(=O)O)CCC3(C)C(CCC4C5(C)CCC(OC(=O)CC(C)(C)C(=O)O)C(C)(C)C5CCC43C)C12)OCC` (stereo not shown) [Compound 13a], the “TI (selectivity index)” value with HIV-1 [1] is reported as greater than 35. For the same compound, the IC50 with HIV-1 [1] (setting [4]) was less than 2 µM; with HIV-1 [1] (setting [5]), 2 ± 0.72 µM. The CC50 at 7 days in data set [2] is greater than 68 µM.
On to `C=C(CP(=O)(OCC)OCC)C1CCC2(C(=O)O)CCC3(C)C(CCC4C5(C)CCC(O)C(C)(C)C5CCC43C)C12` (stereo not shown) [Compound 11, 30-Diethoxyphosphorylbetulinic Acid], for which, in the data set on HIV-1 [1] (setting [4]), the IC50 is greater than 10 µM. The compound also gave a CC50 at 7 days in data set [2] greater than 42 µM.
As for `C=C(CP(=O)(OCC)OCC)C1CCC2(C(=O)O)CCC3(C)C(CCC4C5(C)CCC(OC(=O)CC(C)(C)C(=O)O)C(C)(C)C5CCC43C)C12` (stereo not shown) [Compound 14a], the CC50 at 7 days in data set [2] was greater than 68 µM.
